Laboratory results reported in article PMC2603313, “Direct Inhibition of GSK3β by the Phosphorylated Cytoplasmic Domain of LRP6 in Wnt/β-Catenin Signaling” (PLoS ONE, 2008).
Square brackets hold non-standard residues; d marks the D form. Ends that are not written are not given here. pT = C[C@@H](OP(=O)(O)O)[C@H](N)C(=O)O; pS = N[C@@H](COP(=O)(O)O)C(=O)O

What was measured:
GSK3β and CK1 = assay: Phosphorylation of GST-fusion proteins by GSK3β and CK1; type: biochemical; conditions: data not shown
[1] = biological target: catalytic domain of mouse GSK3β (residues 27–393) (mouse) (UniProt Q9WV60)
[2] = biological target: GSK3β catalytic domain, 27-393 (UniProt Q9WV60); assay: inhibition of GSK3β kinase activity, band shift; conditions: reference: non-phosphorylated peptide …; sites S1490
GSK3β [3] = biological target: T1, GSK3β (Mus musculus, UniProt Q9WV60); assay: In vitro GSK3β activity assay with synthetic peptides (phosphorylation of primed β-catenin N-terminal fragment); type: biochemical; conditions: primed β-catenin N-terminal fragment 7 µM, 1 mM ATP, pH 8.0, 30 min at 37°C, 4–7 independent experiments
T1 construct: The catalytic domains of mouse GSK3β (residues 27–393) and CK1ε (residues 1–319) were expressed and purified; made in house
Description: We synthesized one dually-phosphorylated (NPPPpSPApTERSH, where pS or pT designates a phosphorylated Ser or Thr residue), two singly-phosphorylated (NPPPSPApTERSH and NPPPp[…]) and one non-phosphorylated ([…]) peptides derived from the first PPPSPxS motif of LRP6 (Fig. 1A). To measure the GSK3β activity toward β-catenin in vitro, we utilized a β-catenin N-terminal fragment (residues 1–133), whose Ser45 was prephosphorylated by CK1, as a substrate (Ha et al., 2004). Each synthetic peptide was added to a reaction mixture containing the purified GSK3β enzyme and the substrate β-catenin N-terminal fragment. The GSK3β activity was determined through measurement of the intensity of the supershifted (retarded) β-catenin bands (Fig. S3), which represent the phosphorylated product species (Fig. S4), on an SDS-polyacrylamide gel (Figs. S3, S4, S5, S6, S7). […] This corresponds well with the results of Zeng et al., who reported that the first Ser residue in the PPPSPxS motif has a more important role in Wnt/β-catenin signaling than the second Ser residue.
The catalytic domains of mouse GSK3β (residues 27–393) and CK1ε (residues 1–319) were expressed and purified as previously described. The N-terminal region (residues 1–133) of β-catenin was expressed in Escherichia coli as a GST-fusion protein with a TEV protease cleavage site and then purified using Glutathione-agarose. Subsequently, the GST tag was cleaved using recombinant TEV protease and was removed by repeated HiTrapQ anion-exchange chromatography. The N-terminal region of β-catenin was then phosphorylated by incubation with the catalytic domain of CK1ε (0.28 mg/ml) at 37°C for 20 min in 50 mM Tris buffer (pH 8.0) containing 10 mM MgCl2, 10 mM 2-mercaptoethanol, and 2 mM phenylmethylsulfonylfluoride. The phosphorylated β-catenin fragment was then further purified using HiTrapQ anion-exchange chromatography to remove the CK1ε enzyme. […]

Xenopus embryos = assay: Microinjection into Xenopus embryos, second body axis formation; type: in vivo, Xenopus laevis; conditions: peptide 1 ng co-injected with XWnt8 0.5 pg
Description: It is well established that Wnt signaling reduces GSK3β activity during development of the Xenopus embryo [24], and that the suppressed activity of GSK3β induces a second body axis in the Xenopus embryo in the response to Wnt. To examine the in vivo effect of the PPPSPxS motif on Wnt/β-catenin signaling, we injected the synthetic peptides into Xenopus embryos, along with a small amount of Xenopus Wnt8 that is insufficient to induce second body axis formation on its own. […] It is likely that a slight reduction in the GSK3β activity due to the activity of the exogenous Wnt on the endogenous LRP6/5 is required for the peptide to cause a sufficient inhibition of GSK3β to trigger Wnt/β-catenin signaling. Moreover, even if the amount of peptide injected is well above physiological concentrations, the effect is specific to the phosphorylated peptide.
Figure 3 The effect of the injected PPPSPxS peptides to the Xenopus embryos. Xenopus Wnt8 protein (XWnt8; 0.5 pg) was co-microinjected with each peptide (1 ng) into the ventrovegetal region of Xenopus embryos. […]
Xenopus laevis was purchased from Xenopus I and Nasco. […] In vitro fertilization was performed as described previously, and the developmental stages of the embryos were determined according to Nieuwkoop and Faber. […]

GSK3β [4] = conditions: toward full-length β-catenin; cited from earlier work
Procedure: We next sought to determine if the phosphorylated LRP6 motifs are capable of inhibiting GSK3β in the Axin complex. An in vitro kinase assay with Axin-bound GSK3β was performed by adding the purified GSK3β binding domain (GBD) of Axin to the reaction mixture.

[5] = biological target: T2, catalytic domain of mouse GSK3β (residues 27–393) (mouse, UniProt Q9WV60 27-393); assay: far-Western, overlay or dot blot; 15 µg GST-miniCL on PVDF; membrane incubated with GSK3β (2 µg/ml) and/or His-Axin (12 µg/ml) in TBST containing 1% skim milk; conditions: both partners purified
T2 construct: GSK3β (glycogen synthase kinase 3 beta), mouse, catalytic domain, residues 27-393; also called recombinant GSK3β catalytic domain; source: recombinant, expressed and purified as previously described [32]

[6] = biological target: T2, catalytic domain of mouse GSK3β …; assay: steady-state kinetics of enzyme inhibition (GSK3β kinase assay, band shift on SDS-PAGE); apparent Ki; 50 mM Tris pH 8.0, 10 mM MgCl2, 10 mM 2-mercaptoethanol, 1 mM ATP, 8 ng GSK3β catalytic domain, 6 µM primed β-catenin N-terminal fragment (1-133), 37°C; peptide 0, 1, 3, 10, 30 µM; (V0/Vi)−1 = [peptide]/Ki; conditions: both partners purified

GST-PPPAPxS: GST-fused LRP6 PPPAPxS, residues 1485–1497 with the substitution at Ser1490 (LNPPPAPATERSH; also: GST-fused, end not given here)
Phosphorylation by GSK3β and CK1 (GSK3β and CK1): not phosphorylated

GST-PPPSPxS: GST-fused LRP6 PPPSPxS, residues 1485–1497 (LNPPPSPATERSH; also: GST-fused, end not given here)
Phosphorylation by GSK3β and CK1 (GSK3β and CK1): not phosphorylated

GST-fused mouse Axin GBD (GSK3β binding domain, residues 512–530) (domain or fragment)
inhibition of in vitro GSK3β activity at above 2.5 µM of GST-Axin GBD [1]: 20%

LRP6 (from UniProt O75581) pS1490 peptide NPPPpSPATERSH
binding against the reference [2]: gained

NPPPSPATERSH [PPPSPxS, non-phosphorylated peptide derived from the first PPPSPxS motif of LRP6]
Inhibitory effect on GSK3β activity toward β-catenin (GSK3β [3]; at concentrations up to 100 µM): did not show any inhibitory effect on the GSK3β activity | Induction of second body axis (Xenopus embryos): did not

NPPPpSPATERSH [PPP(p)SPxS, singly-phosphorylated peptide (first Ser/Thr) derived from the first PPPSPxS motif of LRP6]
Inhibitory effect on GSK3β activity toward β-catenin (GSK3β [3]; at 100 µM): strong inhibitory effect close to that of the dually-phosphorylated peptide | Induction of second body axis (Xenopus embryos): induced the second body axis with an efficiency comparable to that of the dually-phosphorylated peptide

full-length Axin: full-length Axin scaffold protein
Effect on GSK3β activity (GSK3β [4]): increases GSK3β activity

B1: GST-fused LRP6 miniCL (residues 1470–1510 of human LRP6), not phosphorylated (domain or fragment, UniProt O75581 1470-1510, looked up)
chain: SSSSSSTKGTYFPAILNPPPSPATERSHYTMEFGYSSNSPS
modifications: also: GST fusion (GST left off)
notes: LRP6, human, intracellular fragment miniCL, residues 1470-1510 (Ser/Thr rich cluster and first PPPSPxS motif); also called GST-miniCL; LRP6 miniCL region; source: E. coli, purified (Glutathione-agarose, HiTrapQ)
binding result [5]: binds

B2: dually-phosphorylated LRP6 PPPSPxS peptide (NPPPpSPApTERSH) (peptide)
peptide: {biotin (sulfo-NHS-SS-biotin)}-NPPP[pS]PA[pT]ERSH-NH2
notes: LRP6, first PPPSPxS motif; The biotin is joined by a disulfide that can be cut by reduction; the kinase buffer holds 10 mM 2-mercaptoethanol; also called PPP(p)SPx(p)S; dually-phosphorylated peptide; source: synthetic peptide (solid-phase synthesis)
Ki [6]: 13 µM
